Literature values, collected in patent US20130345262A1, “METHOD FOR PREVENTION OF STROKE” (BOEHRINGER INGELHEIM INTERNATIONAL GMBH, priority 2012, published 2013).

System: patients who have nonvalvular atrial fibrillation
Conditions: patients with nonvalvular atrial fibrillation

CC(=O)CC(c1ccccc1)c1c(O)c2ccccc2oc1=O (racemic) [warfarin, 3-(α-acetonylbenzyl)4-hydroxycoumarin]
reduction of the risk of stroke compared to placebo: about 64%
